Results: patent publication US10800792B2, “Inhibitors of Bruton's tyrosine kinase and method of their use” (JANSSEN PHARMACEUTICA NV, priority 2015, dated 2020)

Target: unphosphorylated-BTK kinase domain (UP-BTK), GST-tagged human BTK (389-659aa) (Homo sapiens (Human), UniProt Q06187)
Experiment: BTK kinase Lanthascreen binding assay
Settings: pIC50 = negative log of the IC50 in molar, 60 minutes incubation, 50 nM Tracer 236; for IC50: read-out: BTK_I_binding pIC50 (converted)
Method in brief: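 A fluorescent tracer is bound to unphosphorylated BTK; test compound is added to compete it off; the Lanthascreen signal is read and IC50 is fitted, then reported as its negative log in molar.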

Chain of unphosphorylated-BTK kinase domain (UP-BTK), GST-tagged human BTK (389-659aa) (Q06187 389-659): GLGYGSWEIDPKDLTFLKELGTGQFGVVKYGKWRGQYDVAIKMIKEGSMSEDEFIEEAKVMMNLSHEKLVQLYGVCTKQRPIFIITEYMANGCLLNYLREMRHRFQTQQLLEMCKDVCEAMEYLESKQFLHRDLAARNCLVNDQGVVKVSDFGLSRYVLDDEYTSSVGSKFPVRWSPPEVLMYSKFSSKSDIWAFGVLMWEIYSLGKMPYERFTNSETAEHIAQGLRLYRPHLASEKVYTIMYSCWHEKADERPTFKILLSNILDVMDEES

Row | SMILES | BTK_I_binding pIC50 | IC50 [µM]
1 | C=CC(=O)N1CCC[C@@H](NC(=O)c2sc3nccc4c3c2NC(=O)N4c2ccc(Oc3ccccc3)cc2)C1 [Example 18, (R)—N-(1-Acryloylpiperidin-3-yl)-4-oxo-5-(4-phenoxyphenyl)-4,5-dihydro-3H-1-thia-3,5,8-triazaacenaphthylene-2-carboxamide] | 8.2 | 
2 | C=CC(=O)N1CCC[C@@H](NC(=O)c2sc3nccc4c3c2NC(=O)N4c2c(C)cc(Oc3ccccc3)cc2F)C1 [Example 20, (R)—N-(1-Acryloylpiperidin-3-yl)-5-(2-fluoro-6-methyl-4-phenoxyphenyl)-4-oxo-4,5-dihydro-3H-1-thia-3,5,8-triazaacenaphthylene-2-carboxamide] | 7.4 | 
3 | Cc1cc(Oc2ccccc2)ccc1N1C(=O)Nc2c(C(=O)N[C@@H]3CCCN(C(=O)/C(C#N)=C/C4(C)COC4)C3)sc3nccc1c23 [Example 21, (R,E)-N-(1-(2-cyano-3-(3-methyloxetan-3-yl)acryloyl)piperidin-3-yl)-5-(2-methyl-4-phenoxyphenyl)-4-oxo-4,5-dihydro-3H-1-thia-3,5,8-triazaacenaphthylene-2-carboxamide] | 7.7 | 
4 | C=C(Cl)C(=O)N1CCC[C@@H](NC(=O)c2sc3nccc4c3c2NC(=O)N4c2ccc(Oc3ccccc3)cc2C)C1 [Example 26, (R)—N-(1-(2-Chloroacryloyl)piperidin-3-yl)-5-(2-methyl-4-phenoxyphenyl)-4-oxo-4,5-dihydro-3H-1-thia-3,5,8-triazaacenaphthylene-2-carboxamide] |  | 0.0501
5 | Cc1cc(Oc2ccccc2)ccc1N1C(=O)Nc2c(C(=O)N[C@@H]3CCCN(C(=O)/C=C/CN)C3)sc3nccc1c23 [Example 27, (R,E)-N-(1-(4-Aminobut-2-enoyl)piperidin-3-yl)-5-(2-methyl-4-phenoxyphenyl)-4-oxo-4,5-dihydro-3H-1-thia-3,5,8-triazaacenaphthylene-2-carboxamide] |  | 0.0501
6 | Cc1cc(Oc2ccccc2)ccc1N1C(=O)Nc2c(C(=O)NC3COCCN(C#N)C3)sc3nccc1c23 (centres unmarked) [Example 31, N-(4-Cyano-1,4-oxazepan-6-yl)-5-(2-methyl-4-phenoxyphenyl)-4-oxo-4,5-dihydro-3H-1-thia-3,5,8-triazaacenaphthylene-2-carboxamide] |  | 0.02
7 | C=CC(=O)N1CCC[C@@H](NC(=O)c2sc3nccc4c3c2NC(=O)N4c2ccc(OC3CCCCC3)cc2C)C1 [Example 32, (R)—N-(1-Acryloylpiperidin-3-yl)-5-(4-(cyclohexyloxy)-2-methylphenyl)-4-oxo-4,5-dihydro-3H-1-thia-3,5,8-triazaacenaphthylene-2-carboxamide] |  | 0.0501
8 | C=CC(=O)N1C[C@H](NC(=O)c2sc3nccc4c3c2NC(=O)N4c2ccc(Oc3ccccc3)cc2C)[C@@H](F)C1 [Example 36, N-((3S,4S)-1-Acryloyl-4-fluoropyrrolidin-3-yl)-5-(2-methyl-4-phenoxyphenyl)-4-oxo-4,5-dihydro-3H-1-thia-3,5,8-triazaacenaphthylene-2-carboxamide] |  | 0.02
9 | C=CC(=O)N1C[C@@H](F)[C@@H](NC(=O)c2sc3nccc4c3c2NC(=O)N4c2ccc(Oc3ccccc3)cc2C)C1 [Example 37, N-((3S,4R)-1-Acryloyl-4-fluoropyrrolidin-3-yl)-5-(2-methyl-4-phenoxyphenyl)-4-oxo-4,5-dihydro-3H-1-thia-3,5,8-triazaacenaphthylene-2-carboxamide] | 7.6 | 
10 | C=CC(=O)N1CC[C@@H](NC(=O)c2sc3nccc4c3c2NC(=O)N4c2ccc(OC3CCCCC3)cc2C)C1 [Example 39, (R)—N-(1-Acryloylpyrrolidin-3-yl)-5-(4-(cyclohexyloxy)-2-methylphenyl)-4-oxo-4,5-dihydro-3H-1-thia-3,5,8-triazaacenaphthylene-2-carboxamide] | 7.4 | 
11 | COC(C)(C)/C=C(\C#N)C(=O)N1CCC[C@@H](NC(=O)c2sc3nccc4c3c2NC(=O)N4c2ccc(Oc3ccccc3)cc2C)C1 [Example 40, (R,E)-N-(1-(2-Cyano-4-methoxy-4-methylpent-2-enoyl)piperidin-3-yl)-5-(2-methyl-4-phenoxyphenyl)-4-oxo-4,5-dihydro-3H-1-thia-3,5,8-triazaacenaphthylene-2-carboxamide] | 7.6 | 
12 | Cc1cc(Oc2ccccc2)ccc1N1C(=O)Nc2c(C(=O)N[C@@H]3CCCN(C(=O)/C(C#N)=[13CH]/C4CC4)C3)sc3nccc1c23 [Example 41, (R,E)-N-(1-(2-Cyano-3-^13C-cyclopropylacryloyl)piperidin-3-yl)-5-(2-methyl-4-phenoxyphenyl)-4-oxo-4,5-dihydro-3H-1-thia-3,5,8-triazaacenaphthylene-2-carboxamide] |  | 0.0501
13 | N#C/C(=C\C1CC1)C(=O)N1CCC[C@@H](NC(=O)c2sc3nccc4c3c2NC(=O)N4c2ccc(Oc3ccccc3)cc2)C1 [Example 47, (R,E)-N-(1-(2-Cyano-3-cyclopropylacryloyl)piperidin-3-yl)-4-oxo-5-(4-phenoxyphenyl)-4,5-dihydro-3H-1-thia-3,5,8-triazaacenaphthylene-2-carboxamide] | 8.0 | 
14 | C=C(F)C(=O)N1CCC[C@@H](NC(=O)c2sc3nccc4c3c2NC(=O)N4c2ccc(Oc3ccccc3)cc2C)C1 [Example 48, (R)—N-(1-(2-Fluoroacryloyl)piperidin-3-yl)-5-(2-methyl-4-phenoxyphenyl)-4-oxo-4,5-dihydro-3H-1-thia-3,5,8-triazaacenaphthylene-2-carboxamide] | 6.9 | 
15 | Cc1cc(Oc2c(F)cccc2F)ccc1N1C(=O)Nc2c(C(=O)N[C@@H]3CCCN(C)C3)sc3nccc1c23 [Example 52, (R)-5-(4-(2,6-Difluorophenoxy)-2-methylphenyl)-N-(1-methylpiperidin-3-yl)-4-oxo-4,5-dihydro-3H-1-thia-3,5,8-triazaacenaphthylene-2-carboxamide] | 7.0 | 

Now from value to molecule:

Row | BTK_I_binding pIC50 | IC50 [µM] | SMILES
16 | 7.4 |  | C=CC(=O)N1C[C@H](NC(=O)c2sc3nccc4c3c2NC(=O)N4c2ccc(Oc3ccccc3)cc2C)C[C@H](OC)C1 [Example 14, N-((3R,5S)-1-Acryloyl-5-methoxypiperidin-3-yl)-5-(2-methyl-4-phenoxyphenyl)-4-oxo-4,5-dihydro-3H-1-thia-3,5,8-triazaacenaphthylene-2-carboxamide]
17 | 7.6 |  | C=CC(=O)N1CCC[C@@H](NC(=O)c2sc3nccc4c3c2NC(=O)N4c2ccc(Oc3ccccc3)cc2Cl)C1 [Example 15, (R)—N-(1-Acryloylpiperidin-3-yl)-5-(2-chloro-4-phenoxyphenyl)-4-oxo-4,5-dihydro-3H-1-thia-3,5,8-triazaacenaphthylene-2-carboxamide]
18 | 7.3 |  | C=CC(=O)N1CCC[C@@H](NC(=O)c2sc3nccc4c3c2NC(=O)N4c2ccc(Oc3cccc4ccoc34)cc2C)C1 [Example 16, (R)—N-(1-Acryloylpiperidin-3-yl)-5-(4-(benzofuran-7-yloxy)-2-methylphenyl)-4-oxo-4,5-dihydro-3H-1-thia-3,5,8-triazaacenaphthylene-2-carboxamide]
19 | 7.7 |  | C=CC(=O)N1CC[C@@H](NC(=O)c2sc3nccc4c3c2NC(=O)N4c2ccc(Oc3c(F)cccc3F)cc2C)C1 [Example 17, (R)—N-(1-Acryloylpyrrolidin-3-yl)-5-(4-(2,6-difluorophenoxy)-2-methylphenyl)-4-oxo-4,5-dihydro-3H-1-thia-3,5,8-triazaacenaphthylene-2-carboxamide]
20 |  | 0.0631 | C=CC(=O)N1CCC[C@@H](NC(=O)c2sc3nccc4c3c2NC(=O)N4c2ccc(Oc3ccccc3CC)cc2C)C1 [Example 19, (R)—N-(1-Acryloylpiperidin-3-yl)-5-(4-(2-ethylphenoxy)-2-methylphenyl)-4-oxo-4,5-dihydro-3H-1-thia-3,5,8-triazaacenaphthylene-2-carboxamide]
21 | 7.4 |  | C=CC(=O)N1CC[C@@H](NC(=O)c2sc3nccc4c3c2NC(=O)N4c2ccc(Oc3cccc4ccoc34)cc2C)C1 [Example 22, (R)—N-(1-Acryloylpyrrolidin-3-yl)-5-(4-(benzofuran-7-yloxy)-2-methylphenyl)-4-oxo-4,5-dihydro-3H-1-thia-3,5,8-triazaacenaphthylene-2-carboxamide]
22 | 7.6 |  | Cc1cc(Oc2ccccc2)ccc1N1C(=O)Nc2c(C(=O)N[C@@H]3CCN(C(=O)/C=C/CO)C3)sc3nccc1c23 [Example 30, (R,E)-N-(1-(4-Hydroxybut-2-enoyl)pyrrolidin-3-yl)-5-(2-methyl-4-phenoxyphenyl)-4-oxo-4,5-dihydro-3H-1-thia-3,5,8-triazaacenaphthylene-2-carboxamide]
23 |  | 0.0316 | C=CC(=O)N1CCC[C@@H](NC(=O)c2sc3nccc4c3c2NC(=O)N4c2ccc(OC(C)C)cc2C)C1 [Example 33, (R)—N-(1-Acryloylpiperidin-3-yl)-5-(4-isopropoxy-2-methylphenyl)-4-oxo-4,5-dihydro-3H-1-thia-3,5,8-triazaacenaphthylene-2-carboxamide]
24 | 7.0 |  | CC#CC(=O)N1CCC[C@@H](NC(=O)c2sc3nccc4c3c2NC(=O)N4c2ccc(Oc3ccccc3)cc2C)C1 [Example 42, (R)—N-(1-(But-2-ynoyl)piperidin-3-yl)-5-(2-methyl-4-phenoxyphenyl)-4-oxo-4,5-dihydro-3H-1-thia-3,5,8-triazaacenaphthylene-2-carboxamide]
25 | 7.1 |  | C=CC(=O)N1CC[C@@H](NC(=O)c2sc3nccc4c3c2NC(=O)N4c2c(C)cc(Oc3ccccc3)cc2F)C1 [Example 45, (R)—N-(1-Acryloylpyrrolidin-3-yl)-5-(2-fluoro-6-methyl-4-phenoxyphenyl)-4-oxo-4,5-dihydro-3H-1-thia-3,5,8-triazaacenaphthylene-2-carboxamide]
26 | 7.5 |  | C=CC(=O)N1CCC[C@@H](NC(=O)c2sc3nccc4c3c2NC(=O)N4c2ccc(OC3CC3)cc2C)C1 [Example 51, (R)—N-(1-Acryloylpiperidin-3-yl)-5-(4-cyclopropoxy-2-methylphenyl)-4-oxo-4,5-dihydro-3H-1-thia-3,5,8-triazaacenaphthylene-2-carboxamide]
